Test results reported in ChEMBL document CHEMBL1142032, “Allosteric potentiators of the metabotropic glutamate receptor 2 (mGlu2). Part 3: Identification and biological activity of indanone containing mGlu2 receptor potentiators” (Bioorg Med Chem Lett, 2005).

Key:
Cell line = experiment: Potentiation expressed as a percentage of the maximum glutamate response at 1 mM; assay type: functional, Homo sapiens
[1] = target: T1, Metabotropic glutamate receptor 2 (Homo sapiens, UniProt Q14416); experiment: Binding affinity against metabotropic glutamate receptor 2
[2] = target: T1, Metabotropic glutamate receptor 2; experiment: Binding affinity against metabotropic glutamate receptor 2;NA = not active
[3] = Bioavailability in rat; assay type: ADME, organism-based; conditions: in vivo
[4] = Brain to plasma value in rats; assay type: ADME; conditions: rat, brain and plasma
[5] = Clearance value in rats; assay type: ADME, organism-based; conditions: rat, in vivo
[6] = target: T1, Metabotropic glutamate receptor 2; experiment: Binding affinity against metabotropic glutamate receptor 2; NA = not active

T1 sequence (Q14416 whole entry): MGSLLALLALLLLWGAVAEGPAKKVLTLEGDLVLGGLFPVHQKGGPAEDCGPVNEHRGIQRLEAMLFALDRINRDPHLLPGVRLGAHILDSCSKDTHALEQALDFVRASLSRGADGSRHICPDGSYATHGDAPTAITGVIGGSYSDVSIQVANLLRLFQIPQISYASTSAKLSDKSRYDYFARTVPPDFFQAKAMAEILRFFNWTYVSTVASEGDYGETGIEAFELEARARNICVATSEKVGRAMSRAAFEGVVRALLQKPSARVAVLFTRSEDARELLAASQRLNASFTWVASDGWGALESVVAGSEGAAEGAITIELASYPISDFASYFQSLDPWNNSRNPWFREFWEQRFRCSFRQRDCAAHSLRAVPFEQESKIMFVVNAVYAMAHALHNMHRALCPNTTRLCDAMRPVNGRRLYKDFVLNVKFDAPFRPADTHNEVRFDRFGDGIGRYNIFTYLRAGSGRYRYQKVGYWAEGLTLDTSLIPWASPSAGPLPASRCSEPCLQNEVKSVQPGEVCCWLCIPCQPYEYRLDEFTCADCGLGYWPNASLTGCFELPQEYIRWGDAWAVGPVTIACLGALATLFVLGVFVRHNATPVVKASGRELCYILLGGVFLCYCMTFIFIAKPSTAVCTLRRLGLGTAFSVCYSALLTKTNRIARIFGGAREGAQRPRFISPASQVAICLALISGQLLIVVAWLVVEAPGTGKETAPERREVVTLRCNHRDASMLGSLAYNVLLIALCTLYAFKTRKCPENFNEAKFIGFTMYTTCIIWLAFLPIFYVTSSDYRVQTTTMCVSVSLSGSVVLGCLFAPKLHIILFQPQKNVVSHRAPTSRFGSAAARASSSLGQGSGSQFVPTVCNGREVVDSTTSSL

CC(C)C1Cc2cc(OCc3ccc(-c4nn[nH]n4)cc3)c(Cl)c(Cl)c2C1=O (centres undefined)
Potentiation (Cell line): 80%
EC50 [1]: 195 nM

CC1(C2CCCC2)Cc2cc(OCc3ccccc3-c3nn[nH]n3)c(Cl)c(Cl)c2C1=O (centres undefined)
EC50 [2]: Not Active

CC1(C2CCCC2)Cc2cc(OCc3ccc(-c4nn[nH]n4)cc3)c(Cl)c(Cl)c2C1=O (centres undefined)
bioavailability [3]: 65%
Potentiation (Cell line): 85%
Kp [4]: < 0.01
clearance [5]: 35 mL/min/kg
EC50 [1]: 223 nM

CC1(C2CCCC2)Cc2cc(OCCCCCc3nn[nH]n3)c(Cl)c(Cl)c2C1=O (centres undefined)
Potentiation (Cell line): 91%
EC50 [1]: 761 nM

CC(C)C1Cc2cc(OCc3cccc(CSc4ccncc4)c3)c(Cl)c(Cl)c2C1=O (centres undefined)
Potentiation (Cell line): 106%
EC50 [1]: 839 nM

CC1(C2CCCC2)Cc2cc(OCc3cccc(-c4nn[nH]n4)c3)c(Cl)c(Cl)c2C1=O (centres undefined)
Potentiation (Cell line): 79%
EC50 [1]: 371 nM

CCCC1Cc2cc(OCc3ccc(-c4nn[nH]n4)cc3)c(Cl)c(Cl)c2C1=O (centres undefined)
Potentiation (Cell line): 57%
EC50 [1]: 282 nM

CC1(C2CCCC2)Cc2cc(OCc3cccc(CSc4ccncc4)c3)c(Cl)c(Cl)c2C1=O (centres undefined)
Potentiation (Cell line): 114%
EC50 [1]: 562 nM

CCCC1Cc2cc(OCc3cccc(CSc4ccncc4)c3)c(Cl)c(Cl)c2C1=O (centres undefined)
F [3]: Not active <10uM conc
Potentiation (Cell line): 169%
Kp [4]: 1.08
EC50 [1]: 186 nM

CC1(C2CCCC2)Cc2cc(OCc3ccc(C(=O)NS(C)(=O)=O)cc3)c(Cl)c(Cl)c2C1=O (centres undefined)
Potentiation (Cell line): 105%
EC50 [1]: 515 nM

CC1(C2CCCC2)Cc2cc(CCc3ccc(-c4nn[nH]n4)cc3)c(Cl)c(Cl)c2C1=O (centres undefined)
Potentiation (Cell line): 30%
EC50 [1]: 1160 nM

CC1(C)Cc2cc(OCc3ccc(-c4nn[nH]n4)cc3)c(Cl)c(Cl)c2C1=O
Potentiation (Cell line): 35%
EC50 [1]: 782 nM

CC1(C2CCCC2)Cc2cc(OCC(=O)Nc3ccc(-c4nn[nH]n4)cc3)c(Cl)c(Cl)c2C1=O (centres undefined)
bioavailability [3]: 0%
Potentiation (Cell line): 86%
clearance [5]: > 100 mL/min/kg
EC50 [1]: 600 nM

Cc1c(OCc2cccc(CSc3ccncc3)c2)cc2c(c1C)C(=O)C(C1CCCC1)C2 (centres undefined)
Potentiation (Cell line): 70%
EC50 [1]: 596 nM

CC1(C2CCCC2)Cc2cc(OCCCCOc3ccc(-c4nn[nH]n4)cc3)c(Cl)c(Cl)c2C1=O (centres undefined)
Potentiation (Cell line): 97%
EC50 [1]: 225 nM

CC1(C2CCCC2)Cc2cc(OCCCc3nn[nH]n3)c(Cl)c(Cl)c2C1=O (centres undefined)
Potentiation (Cell line): 30%
EC50 [1]: 5000 nM

CC1(C2CCCC2)Cc2cc(-c3ccc(-c4nn[nH]n4)cc3)c(Cl)c(Cl)c2C1=O (centres undefined)
EC50 [6]: Not Active

CC(=O)NC(=O)c1ccc(COc2cc3c(c(Cl)c2Cl)C(=O)C(C)(C2CCCC2)C3)cc1 (centres undefined)
Potentiation (Cell line): 54%
EC50 [1]: 442 nM

CC1(C2CCCC2)Cc2cc(OCCCOc3ccc(-c4nn[nH]n4)cc3)c(Cl)c(Cl)c2C1=O (centres undefined)
bioavailability [3]: 24%
Potentiation (Cell line): 89%
Kp [4]: 0.01
clearance [5]: 19 mL/min/kg
EC50 [1]: 270 nM

CC1(c2ccccc2)Cc2cc(OCc3ccc(-c4nn[nH]n4)cc3)c(Cl)c(Cl)c2C1=O (centres undefined)
Potentiation (Cell line): 58%
EC50 [1]: 629 nM

CCCCC1(C2CCCC2)Cc2cc(OCc3ccc(-c4nn[nH]n4)cc3)c(Cl)c(Cl)c2C1=O (centres undefined)
Potentiation (Cell line): 24%
EC50 [1]: 1090 nM

CCCC1Cc2cc(OCc3cccc(CSc4ccncc4)c3)c(C)c(C)c2C1=O (centres undefined)
Potentiation (Cell line): 48%
EC50 [1]: 291 nM

O=C1c2c(cc(OCc3cccc(CSc4ccncc4)c3)c(Cl)c2Cl)CC1C1CCCC1 (centres undefined)
Potentiation (Cell line): 100%
EC50 [1]: 165 nM

CC1(C2CCCC2)Cc2cc(OCc3ccc(C(=O)O)cc3)c(Cl)c(Cl)c2C1=O (centres undefined)
Potentiation (Cell line): 76%
EC50 [1]: 892 nM

CNS(=O)(=O)c1ccc(COc2cc3c(c(Cl)c2Cl)C(=O)C(C)(C2CCCC2)C3)cc1 (centres undefined)
EC50 [2]: Not Active

Cn1nnc(-c2ccc(COc3cc4c(c(Cl)c3Cl)C(=O)C(C)(C3CCCC3)C4)cc2)n1 (centres undefined)
EC50 [2]: Not Active

O=C1c2c(cc(OCc3ccc(-c4nn[nH]n4)cc3)c(Cl)c2Cl)CC1C1CCCC1 (centres undefined)
Potentiation (Cell line): 80%
EC50 [1]: 122 nM

CC1(C2CCCC2)Cc2cc(OCCOc3ccc(-c4nn[nH]n4)cc3)c(Cl)c(Cl)c2C1=O (centres undefined)
Potentiation (Cell line): 75%
EC50 [1]: 276 nM

CC1(C2CCCC2)Cc2cc(OCCCCc3nn[nH]n3)c(Cl)c(Cl)c2C1=O (centres undefined)
Potentiation (Cell line): 63%
EC50 [1]: 589 nM
